Source: patent US9642922B2, “Caspase-triggered nano-aggregation probes and methods of use” (The Board of Trustees of the Leland Stanford Junior …, priority 2013, dated 2017)
Numbering of substitutions follows the chain as printed. Marks after values point to notes of the source that are not given here.

Assays:
Caspase-3 [1] = biological target: T1, Caspase-3 (Mus musculus, UniProt P70677); conditions: cited from earlier work
T1 sequence (P70677 29-175 limits assumed): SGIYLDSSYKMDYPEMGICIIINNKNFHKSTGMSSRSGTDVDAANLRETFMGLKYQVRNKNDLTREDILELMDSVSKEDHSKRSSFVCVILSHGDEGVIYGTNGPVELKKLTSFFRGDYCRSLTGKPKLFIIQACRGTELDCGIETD
T1 sequence (P70677 176-277 limits assumed): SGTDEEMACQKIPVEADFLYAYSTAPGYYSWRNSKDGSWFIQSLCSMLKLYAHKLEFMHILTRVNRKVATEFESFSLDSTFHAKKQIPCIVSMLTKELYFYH

[2] = test system: STS-induced apoptotic HeLa cells; test: Flow cytometry of STS-induced apoptotic HeLa cells labeled with probes; format: cell-based, human; conditions: 2 μM probe, compared with C-SNAF
Method: Approximately 10^5 HeLa cells in 1 mL DMEM medium were seeded onto 12-well plates. […] For the inhibitor blocking experiment, the STS-treated cells were first incubated with the caspase inhibitor Z-VAD-fmk (50 μM, R&D Systems) for 30 min, and then 2 μM C-SNAF was added. All cells incubations were 24 h, followed by staining with FLICA (FAM) after trypsinization. After washing with PBS (1×) three times, the cell pellets were resuspended in 300 μL PBS and applied for flow cytometry analysis using the FITC and Cy5.5 channels. The cell number for each flow cytometry analysis was approximately 5000 to 10000, and the data was processed using FlowJo software.

apoptotic HeLa cells = test: Epifluorescence microscopy of apoptotic HeLa cells labeled with probes; format: cell-based, human; conditions: microscopy, 2 μM probe
Method: After removal of the medium, the cells were incubated with C-SNAF, L-ctrl, or D-ctrl at 2 μM for 24 h. Some cells were first incubated with caspase inhibitor (Z-VAD-fmk, 50 μM) for 30 min, followed by incubating with 2 μM C-SNAF for 24 h. The cells were carefully washed with PBS (1×) three times, and stained with Hoechst 33342 (2 μM) at 37° C. for 30 min. After rinses with PBS (1×) several times, the medium was replaced and the fluorescence images were acquired with DAPI and Cy5.5 filters. The images were processed using the standard CRi Nuance software, analyzed using Image J software package (NIH), and presented at the same intensity scale for comparison.
HeLa cells in #1.5 borosilicate 8-well chambered coverslips (Nunc) were either incubated with C-SNAF (2 μM) alone or co-incubated with DOX (1, 2, and 5 μM) and 2 μM C-SNAF, 2 μM C-SNAF together with caspase inhibitor (Z-VAD-fmk, 50 μM), or control probes D-ctrl and L-ctrl at 2 μM for 24 h. Then the medium was removed, the cells were carefully washed with PBS (1×) three times, and stained with nuclear binding probe Hoechst 33342 (2 μM) at 37° C. for 30 min. After several rinses with PBS (1×), the medium was replaced and the fluorescence images were acquired with DAPI and […] filters.

subcutaneous HeLa tumors = test: In vivo fluorescence imaging of DOX-treated HeLa tumor-bearing mice; parameters: species or system mouse
Method: C-SNAF or either of the control probes (5 nmol) was administered intravenously to tumor-bearing mice and whole animal fluorescence was longitudinally monitored using a Maestro fluorescence imager.
To establish tumors in 6-week-old female nu/nu mice, 2×10^6 HeLa cells suspended in 50 μL of a 50% v/v mixture of Matrigel in supplemented DMEM (10% FBS, 1% penstrep) were injected subcutaneously in the shoulders of the mouse. Tumors were grown until a single aspect was 0.7 to 0.9 cm (approximately 10-15 days), and then treatment consisting of 8 mg/kg DOX or saline was initiated. Treatments were administered intravenously once every 4 d for a total of three times. Total mouse body weight and tumor size (width and length by caliper) was measured every other day. Tumor volumes were calculated assuming ellipsoid shape with the formula (l×w^2)/2.
Two days following the final treatment, 5 nmol probe in saline was injected intravenously and fluorescence imaging began immediately on a Maestro hyperspectral fluorescent imaging system (PerkinElmer, Mass., USA) using a 635±25 nm excitation filter and a 675 nm long-pass emission filter, with images acquired from 670 to 900 nm. Tissue autofluorescence and Cy5.5 fluorescence were deconvolved, and tumor fluorescence intensity was quantified by region of interest measurement using Nuance v.3.0.1.2 software (Perkin Elmer, Mass., USA).

caspase-3 [3] = biological target: T2, caspase-3 (Homo sapiens, UniProt P42574); test: HPLC assay of caspase-3-triggered macrocyclization of C-SNAF; format: biochemical; parameters: purchased Sigma; host or cells: E. coli; conditions: same conditions as C-SNAF; D-ctrl after 24 h
T2 sequence (P42574 29-175 limits assumed): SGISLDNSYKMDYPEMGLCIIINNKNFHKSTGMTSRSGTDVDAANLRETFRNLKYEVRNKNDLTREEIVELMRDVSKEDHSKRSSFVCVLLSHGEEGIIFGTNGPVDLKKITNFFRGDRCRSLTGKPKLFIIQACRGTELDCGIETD
T2 sequence (P42574 176-277 limits assumed): T1 sequence (P70677 176-277 limits assumed) with T3V, E5D, E6D, Q10H, S46A, L50Q, H53D, L77F, S79A
Method: The progression of caspase-3-triggered macrocyclization of C-SNAF to form C-SNAF-cycl in solution was monitored using high-performance liquid chromatography (HPLC) following incubation of the probe (25 μM) with recombinant human caspase-3 (4.9×10^−[…]).
Caspase (human, recombinant from E. coli) assays were performed for caspase-3 (4.9×10^−3 U; 7.35×10^−4 mg, Sigma), −7 (18.3 U; 7.35×10^−4 mg, Calbiochem), and −9 (0.3 U; 7.35×10^−4 mg, Calbiochem). All caspase assays were conducted in caspase buffer with 50 mM HEPES, 100 mM NaCl, 1 mM EDTA, 10 mM TCEP, 10% glycerol, and 0.1% CHAPS at pH 7.4. Cathepsin B (human liver; 0.27 U; 7.35×10^−4 mg, Calbiochem) and Legumain (human, recombinant from mouse myeloma cell line; >250 pmol/min/μg; 7.35×10^−4 mg, R&D Systems) were conducted in reaction buffer with 50 mM sodium acetate, 50 mM NaCl, 0.5 mM EDTA and 10 mM TCEP at pH 5.5. C-SNAF was diluted in the respective enzyme reaction buffer (25 μM, 1 mL) and remained at room temperature for 10 min, to which was then added the respective enzymes. Reactions were performed at 37° C., and monitored by HPLC hourly. The percentage conversion of the reaction was calculated based on the percentage of peak area of C-SNAF-cycl in the HPLC trace at 675 nm UV detection, which indicated the efficacy of enzyme cleavage of C-SNAF.

PS binding = conditions: cited from earlier work

For `O=C1C(=O)N(Cc2cn(CC[18F])nn2)c2ccc(S(=O)(=O)N3CCCC3COc3ccc(F)cc3F)cc21` (stereo not drawn) [[^18F]ICMT-11], the “Target/Background (Tumor/blood)” value (Caspase-3 [1]; Tumor/blood) is given as 1.2^c, the “time course of uptake at the apoptotic tumors” value (Caspase-3 [1]; mouse, in vivo) is given as “decreased over the time after injection” and the Treated/Untreated (Caspase-3 [1]; treated and untreated group in different animal) is given as 1.5^d.

In the case of `CC[N+]1=C(C=CC=CC=C2N(CCCCCC(=O)NCCCCC(NC(=O)C(CSC)NC(=O)C(CC(=O)O)NC(=O)C(NC(=O)C(CCC(=O)O)NC(=O)C(CC(=O)O)NC(C)=O)C(C)C)C(=O)Nc3ccc4nc(C5=NC(C(=O)NCCCOc6ccc7ncccc7c6)CS5)sc4c3)c3ccc4c(S(=O)(=O)O)cc(S(=O)(=O)O)cc4c3C2(C)C)C(C)(C)c2c1ccc1c(S(=O)(=O)O)cc(S(=O)(=O)[O-])cc21` [D-ctrl], the “fluorescent intensity of apoptotic cells incubated with control probes” value [2] is reported as “much lower fluorescent intensity”, the “fluorescence of apoptotic cells compared to C-SNAF” value (apoptotic HeLa cells) is reported as “relatively weaker fluorescence” and the “correlation (r) of maximum tumor fluorescence with maximum tumor size change” value (subcutaneous HeLa tumors; 3×DOX-treated mice, 1 h after probe) is reported as “no significant correlation”. For the same molecule, the “average signal enhancement between DOX- and saline-treated tumors” value (subcutaneous HeLa tumors; 4 h after probe administration) was −12%, the “tumor fluorescence lower than that of C-SNAF” value (subcutaneous HeLa tumors; DOX-treated mice, 1 h) was 10% and the “products observed after incubation with caspase-3” value (caspase-3 [3]) was “no new products were observed”.

B1: [^18F]Annexin V: known apoptosis PET tracer, PS binding (protein, UniProt P08758 2-320, looked up)
Annexin A5: AQVLRGTVTDFPGFDERADAETLRKAMKGLGTDEESILTLLTSRSNAQRQEISAAFKTLFGRDLLDDLKSELTGKFEKLIVALMKPSRLYDAYELKHALKGAGTNEKVLTEIIASRTPEELRAIKQVYEEEYGSSLEDDVVGDTSGYYQRMLVVLLQANRDPDAGIDEAQVEQDAQALFQAGELKWGTDEEKFITIFGTRSVSHLRKVFDKYMTISGFQIEETIDRETSGNLEQLLLAVVKSIRSIPAYLAETLYYAMKGAGTDDHTLIRVMVSRSEIDLFNIRKEFRKNFATSLYSMIKGDTSGDYKKALLLLCGEDD
modifications: 18F radiolabel
In the case of B1, the “% ID/g at target site” value (PS binding; PET imaging) is listed as 1.56 ± 0.2 % ID/g, the Target/Background (PS binding; maximum value at the apoptotic tissue) is listed as 3.4 and the Treated/Untreated (PS binding; pre and post treatment in same animal) is listed as 1.6^b.
